Experimental data published in patent US12472179B2, “Combination of a CBP/p300 bromodomain inhibitor and a KRAS inhibitor for the treatment of cancer” (TOLREMO THERAPEUTICS AG, priority 2020, dated 2025).
“Also recorded” adds a separate entry of the source.

What was measured:
Type in all cases: cell-based
SNU-1411 cells [1] = test: Label-free determination of cell proliferation, SNU-1411 confluency, AMG510 (Example 6); details: for development of drug resistance / re-growth, combined with AMG510: CBP/p300 bromodomain inhibitor combined with 300 nM AMG510; for cell proliferation (SNU-1411 confluency), drug alone: SNU-1411 (KRAS G12C), 32 days, single drug: 1 μM Compound A, 0.2 μM Compound C, 0.2 μM CCS1477, 1 μM FT-6876, 0.2 μM GNE-781, 300 nM AMG510
Procedure: (§1) 2000 SNU-1411 cells [KCLB; 01411, a CRC (rectal adenocarcinoma) cell line carrying a KRAS G12C mutation], were seeded into 96 well plates (Greiner BioOne 655090) one day prior to drug treatment in RPMI medium containing 10% FCS and 2 mM L-Glutamine. The next day, the wells were imaged label-free using brightfield imaging on a CELIGO Image Cytometer to determine the initial cell confluency. […] Plates were regularly imaged over weeks using brightfield mode (CELIGO Imaging Cytometer) to track cell confluency in each well over time. Growth medium and treatments were replenished twice weekly. […] Confluency was determined using CELIGO software's built-in “confluence” analysis tool in the brightfield mode.

SNU-1411 cells [2] = test: Label-free determination of cell proliferation, SNU-1411 confluency, MRTX849 (Example 7); details: for development of drug resistance / re-growth, combined with MRTX849: SNU-1411, 32 days, CBP/p300 bromodomain inhibitor combined with 300 nM MRTX849; for cell proliferation (SNU-1411 confluency), drug alone: SNU-1411 (KRAS G12C), 32 days, single drug: 1 μM Compound A, 0.2 μM Compound C, 0.2 μM CCS1477, 1 μM FT-6876, 0.2 μM GNE-781, 300 nM MRTX849
Procedure: as §1

SW837 cells = test: Label-free determination of cell proliferation, SW837 confluency, AMG510 (Example 8); details: for development of drug resistance / re-growth, combined with AMG510: CBP/p300 bromodomain inhibitor combined with 100 nM AMG510; for cell proliferation (SW837 confluency), drug alone: SW837 (KRAS G12C), 49 days, single drug: 1 μM Compound A, 0.2 μM Compound C, 0.2 μM CCS1477, 1 μM FT-6876, 0.2 μM GNE-781, 100 nM AMG510
Procedure: 2000 SW837 cells [ATCC; CCL-235, a CRC (rectal adenocarcinoma) cell line carrying a KRAS G12C mutation], were seeded into 96 well plates (Greiner BioOne 655090) one day prior to drug treatment in RPMI medium containing 10% FCS and 2 mM L-Glutamine. The next day, the wells were imaged label-free using brightfield imaging on a CELIGO Image Cytometer to determine the initial cell confluency. […] Plates were regularly imaged over weeks using brightfield mode (CELIGO Imaging Cytometer) to track cell confluency in each well over time. Growth medium and treatments were replenished twice weekly. […] Confluency was determined using CELIGO software's built-in “confluence” analysis tool in the brightfield mode.

NCI-H358 cells = test: Label-free determination of cell proliferation, NCI-H358 cell number, AMG510 (Example 9)
Procedure: 2000 NCI-H358 cells [KCLB; 25807; a non-small cell lung cancer (NSCLC) cell line with KRAS G12C mutation] were seeded into 96 well plates (Greiner BioOne 655090) one day prior to drug treatment in RPMI medium containing 10% FCS and 2 mM L-Glutamine. The next day, the wells were imaged label-free using brightfield imaging on a CELIGO ImageCytometer to determine the initial cell number. […] The cells were regularly imaged over weeks using brightfield mode (CELIGO Imaging Cytometer) to track cell proliferation in each well over time. Growth medium and treatments were replenished twice weekly. […] Cell numbers were determined using CELIGO software's built-in “direct cell counting” analysis tool in the brightfield mode.

SMILES	development of drug resistance / re-growth, combined with AMG510 (SNU-1411 cells [1]; SNU-1411, 32 days)	development of drug resistance / re-growth, combined with MRTX849 (SNU-1411 cells [2])	development of drug resistance / re-growth, combined with AMG510 (SW837 cells; SW837, 49 days)	development of drug resistance / re-growth, combined with AMG510 (NCI-H358 cells; NCI-H358, >20 days, 1 μM Compound A or 200 nM Compound C combined with 100 nM AMG510)	cell proliferation (SNU-1411 confluency), drug alone (SNU-1411 cells [1])	cell proliferation (SNU-1411 confluency), drug alone (SNU-1411 cells [2])	cell proliferation (SW837 confluency), drug alone (SW837 cells)	re-growth in long-term culture, AMG510 alone (SNU-1411 cells [1]; SNU-1411, 32 days, 300 nM AMG510 alone)	re-growth in long-term culture, AMG510 alone (SW837 cells; SW837, 49 days, 100 nM AMG510 alone)	cell proliferation (NCI-H358 cell number), drug alone (NCI-H358 cells; NCI-H358 (KRAS G12C), >20 days, single drug: 1 μM Compound A, 200 nM Compound C, 100 nM AMG510)	re-growth in long-term culture, AMG510 alone (NCI-H358 cells; NCI-H358, >20 days, 100 nM AMG510 alone)
CC(=O)N1C[C@H](c2nc(Nc3cccc(-c4cn(C)nn4)c3)cc(-c3cnccn3)n2)CC[C@@H]1C [Compound C, 1-((2S,5R)-2-methyl-5-(4-((3-(1-methyl-1H-1,2,3-triazol-4-yl)phenyl)amino)-6-(pyrazin-2-yl)pyrimidin-2-yl)piperidin-1-yl)ethan-1-one]	prevent the development of drug resistance	prevent the development of drug resistance	prevent the development of drug resistance	prevent the development of drug resistance; also recorded: completely prevented re-growth	–	–	–	–	–	–	–
COC(=O)N1c2ccc3c(nc(Cc4ccccc4)n3[C@H]3CCC[C@H](C(=O)O)C3)c2CC[C@@H]1C [FT-6876]	prevent the development of drug resistance	prevent the development of drug resistance	prevent the development of drug resistance	–	do not affect cell proliferation	do not affect cell proliferation	do not affect cell proliferation	–	–	–	–
CNC(=O)N1CCc2c(c(N3CCCc4cc(-c5cnn(C)c5)c(C(F)F)cc43)nn2C2CCOCC2)C1 [GNE-781]	prevent the development of drug resistance	prevent the development of drug resistance	prevent the development of drug resistance	–	do not affect cell proliferation	do not affect cell proliferation	do not affect cell proliferation	–	–	–	–
C=CC(=O)N1CCN(c2nc(=O)n(-c3c(C)ccnc3C(C)C)c3nc(-c4c(O)cccc4F)c(F)cc23)[C@@H](C)C1 [AMG510]	–	–	–	–	delayed cell proliferation initially for few days	–	initially prevented cell proliferation	re-grew	re-grew	initially completely blocked cell proliferation	re-grew
CO[C@H]1CC[C@H](n2c([C@@H]3CCCC(=O)N3c3ccc(F)c(F)c3)nc3cc(-c4c(C)noc4C)ccc32)CC1 [CCS1477]	prevent the development of drug resistance	prevent the development of drug resistance	prevent the development of drug resistance	–	do not affect cell proliferation	do not affect cell proliferation	do not affect cell proliferation	–	–	–	–
